From patent publication US20260308185A1, “STAT DEGRADERS AND USES THEREOF” (Recludix Pharma, Inc., priority 2023, published 2026)

Tests used:
[1] = molecular target: T1, Recombinant STAT3 protein (STAT3(G127-I722)) (Homo sapiens, UniProt P40763); experiment: STAT3 Fluorescence Polarization (FP) Assay; type: binding; conditions: 25 nM STAT3(G127-I722), 2 nM 5-FAM-GpYLPQTV-NH2 probe, pH 7.4, 45-minute incubation at room temperature
T1 construct: Recombinant STAT3 protein (STAT3(G127-I722))
Experimental: An FP assay was developed to determine IC50 values for test substances. Recombinant STAT3 protein (STAT3(G127-I722)) at 25 nM was combined with a fluorescently labeled, phosphotyrosine peptide probe (5-FAM-GpYLPQTV-NH2) at 2 nM in FP buffer (10 mM HEPES pH 7.4, 50 mM NaCl. 1 mM EDTA, 0.05% Tween 20, 2 mM DTT). 50 μL of STAT3-probe mixture was added to serial diluted compounds in black, 96-well plates (Greiner BioOne 655076) to a final concentration of 1% DMSO. Reaction components were mixed, and FP was measured after 45-minute incubation at room temperature using a Tecan Spark multimode plate reader. FP signal (mP) was plotted against the log concentration of the test substances and IC50 values were calculated by nonlinear regression analysis using GraphPad Prism software. For STAT3 FP assay, A=≤100 nM; B=>100-1000 nM; C=>1-10 μM; and D=>10 μM.

[2] = molecular target: T2, Recombinant STAT6 protein (STAT6(W123-T658)) (Homo sapiens, UniProt P42226); experiment: STAT6 Fluorescence Polarization (FP) Assay; type: binding; conditions: 250 nM STAT6(W123-T658), 2 nM 5-FAM-Ap[…]-NH2 probe, pH 7.4, 45-minute incubation at room temperature
T2 construct: Recombinant STAT6 protein (STAT6(W123-T658))
T2 sequence (P42226 123-658): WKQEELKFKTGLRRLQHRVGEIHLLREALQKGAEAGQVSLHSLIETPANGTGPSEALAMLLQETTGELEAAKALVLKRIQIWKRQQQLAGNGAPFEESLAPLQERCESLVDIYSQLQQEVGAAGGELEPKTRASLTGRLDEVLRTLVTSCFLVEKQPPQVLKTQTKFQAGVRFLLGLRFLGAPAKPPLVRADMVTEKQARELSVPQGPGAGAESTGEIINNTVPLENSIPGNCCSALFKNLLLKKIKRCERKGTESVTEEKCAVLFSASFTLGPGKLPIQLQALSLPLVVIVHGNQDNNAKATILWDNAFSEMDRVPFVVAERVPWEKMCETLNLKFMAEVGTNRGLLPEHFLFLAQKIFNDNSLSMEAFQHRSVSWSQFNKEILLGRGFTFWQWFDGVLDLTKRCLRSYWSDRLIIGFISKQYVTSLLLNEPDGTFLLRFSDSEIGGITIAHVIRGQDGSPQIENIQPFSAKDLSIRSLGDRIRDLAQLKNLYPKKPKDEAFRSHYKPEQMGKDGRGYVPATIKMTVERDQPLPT
Experimental: An FP assay was developed to determine IC50 values for test substances. Recombinant STAT6 protein (STAT6(W123-T658)) at 250 nM was combined with a fluorescently labeled, phosphotyrosine peptide probe (5-FAM-Ap[…]-NH2) at 2 nM in FP buffer (10 mM HEPES pH 7.4, 50 mM NaCl, 1 mM EDTA, 0.05% Tween 20, 2 mM DTT). 50 μL of STAT6-probe mixture was added to serial diluted compounds in black, 96-well plates (Greiner BioOne 655076) to a final concentration of 1% DMSO. Reaction components were mixed, and FP w as measured after 45-minute incubation at room temperature using a Tecan Spark multimode plate reader. FP signal (mP) was plotted against the log concentration of the test substances and IC50 values were calculated by nonlinear regression analysis using GraphPad Prism software. For STAT6 FP assay. A=≤300 nM; B=>300-3000 nM; C=>3-30 μM; and D=>30 μM.

[3] = tested on: pSTAT6 (pY641-STAT6) in PBMC; experiment: MSD-pSTAT-PBMC Assay (pSTAT6); type: cell-based; conditions: compound 3 hrs, then 1 ng/mL IL-4 for 10 min
Text: Cryopreserved Peripheral Blood Mononuclear Cells (PBMC) are from AllCells. Recombinant Human […] and IL-6 are from Peprotech. Mouse monoclonal anti-STAT3 antibody, rabbit monoclonal anti-pY705-STAT3 antibody, rabbit monoclonal Anti-pY641-STAT6 antibody, and lysis buffer are from Cell Signaling Technology (CST). Mouse monoclonal anti-STAT6 antibody is from BioLegend. Assay plates, blocker, and anti-rabbit secondary antibody are from Meso Scale Discovery (MSD).
Cryopreserved PBMCs were thawed out and allowed to recover overnight in IMDM+10% heat-inactivated FBS prior to plating 50,000 (STAT3) or 25,000 (STAT6) cells per well in 96-well U-bottom tissue culture plates. Cells were treated with compound for 3 hrs, then stimulated with 10 ng/mL IL-6 (STAT3) or 1 ng/mL IL-4 (STAT6) for 10 min. Cells were then spun down and washed with ice-cold PBS prior to lysing the cell pellet with 1× lysis buffer (CST) with 1× HALT protease and phosphatase inhibitor cocktail (Thermo). Lysates were transferred to and incubated overnight at 4° C. with shaking in QuickPlex 96-well high bind assay plates (MSD) pre-coated overnight with 30 μL per well of 0.6 μg/mL mouse monoclonal anti-STAT3 antibody (STAT3) or 2 μg/mL mouse monoclonal anti-STAT6 antibody (STAT6) in 1×PBS, and pre-blocked for 1 hour with 3% Blocker-A (MSD). Captured protein in the assay plates were then washed and probed with 25 μL per well of 0.25 μg/ml rabbit monoclonal anti-pY705-STAT3 antibody (STAT3) or 0.18 μg/ml rabbit monoclonal Anti-pY641-STAT6 antibody (STAT6) in 1% Blocker-A for 1 hour at room temperature with shaking, then washed and probed with 25 ul per well of 1 ug/ml Sulfo-TAG Labeled Goat Anti-Rabbit Antibody (MSD) in 1% Blocker-A for 1 hour at room temperature with shaking. Assay plates were then washed and 150 μL of 1× Read Buffer-T (MSD) was added to each well prior to reading on an SQ120 MSD Plate Reader. Assay signal from each sample was subtracted by the signal from unstimulated control wells and normalized to DMSO control wells, IC50 values were calculated using Graph Pad Prism Dose-Response Nonlinear Regression with variable slope. For both pSTAT3 and pSTAT6 A=≤100 nM; B=>100-1000 nM; C=>1000-3000 nM; and D=>3 μM.

T1 sequence (P40763 127-722): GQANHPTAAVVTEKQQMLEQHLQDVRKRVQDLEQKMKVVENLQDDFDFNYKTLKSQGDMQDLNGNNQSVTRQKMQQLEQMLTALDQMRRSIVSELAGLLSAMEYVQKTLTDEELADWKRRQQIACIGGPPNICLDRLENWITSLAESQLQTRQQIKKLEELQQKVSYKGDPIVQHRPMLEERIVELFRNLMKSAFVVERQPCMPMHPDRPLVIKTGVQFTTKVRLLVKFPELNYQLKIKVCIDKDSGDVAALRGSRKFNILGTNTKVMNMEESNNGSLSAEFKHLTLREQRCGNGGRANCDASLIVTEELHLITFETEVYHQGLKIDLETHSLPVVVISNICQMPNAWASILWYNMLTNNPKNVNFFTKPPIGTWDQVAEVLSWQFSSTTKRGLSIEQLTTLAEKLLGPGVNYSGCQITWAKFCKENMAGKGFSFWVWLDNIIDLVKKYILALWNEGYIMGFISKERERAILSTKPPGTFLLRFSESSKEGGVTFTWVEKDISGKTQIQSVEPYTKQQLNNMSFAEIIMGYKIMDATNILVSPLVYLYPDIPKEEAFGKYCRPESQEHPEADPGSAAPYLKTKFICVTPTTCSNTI

Compound	IC50 [1] [nM]	IC50 [2] [nM]	IC50 [3] [nM]
O=C1CCC(c2ccc(OCCCCCn3ccc([C@@H]4CN(C(=O)[C@@H]5CC[C@@H]6C[C@H]7C[C@H]7C[C@H](NC(=O)c7cc8cc(C(F)(F)P(=O)(O)O)ccc8s7)C(=O)N65)C5(CC5)C4)cc3=O)cc2)C(=O)N1 (stereo partly drawn) [Compound 10, ((2-(((3S,6S,7aS,8aR,9aR)-3-((6R)-6-(1-(5-(4-(2,6-dioxopiperidin-3-yl)phenoxy)pentyl)-2-oxo-1,2-dihydropyridin-4-yl)-4-azaspiro[2.4]heptane-4-carbonyl)-5-oxodecahydro-1H-cyclopropa[d]pyrrolo[1,2-a]azocin-6-yl)carbamoyl)benzo[b]thiophen-5-yl)difluoromethyl)phosphonic acid]	100 to 1000	< 300	1000 to 3000
N#CC1CN(C(=O)C2CCC3CC4CC4CC(NC(=O)c4cc5cc(C(F)(F)P(=O)(O)O)ccc5s4)C(=O)N32)CC1c1cccc(OCCOCCOc2cccc3c2CN(C2CCC(=O)NC2=O)C3=O)c1 [Compound 15, ((2-(((3S,6S,7aS,8aR,9aR)-3-((rel-3S,4R)-3-cyano-4-(3-(2-(2-((2-(2,6-dioxopiperidin-3-yl)-1-oxoisoindolin-4-yl)oxy)ethoxy)ethoxy)phenyl)pyrrolidine-1-carbonyl)-5-oxodecahydro-1H-cyclopropa[d]pyrrolo[1,2-a]azocin-6-yl)carbamoyl)benzo[b]thiophen-5-yl)difluoromethyl)phosphonic acid]	100 to 1000	< 300	> 3000
N#CC1CN(C(=O)C2CCC3CC4CC4CC(NC(=O)c4cc5cc(C(F)(F)P(=O)(O)O)ccc5s4)C(=O)N32)CC1c1cccc(OCCCCCC#Cc2cccc3c2CN(C2CCC(=O)NC2=O)C3=O)c1 [Compound 7, ((2-(((3S,6S,7aS,8aR,9aR)-3-((rel-3S,4R)-3-cyano-4-(3-((7-(2-(2,6-dioxopiperidin-3-yl)-1-oxoisoindolin-4-yl)hept-6-yn-1-yl)oxy)phenyl)pyrrolidine-1-carbonyl)-5-oxodecahydro-1H-cyclopropa[d]pyrrolo[1,2-a]azocin-6-yl)carbamoyl)benzo[b]thiophen-5-yl)difluoromethyl)phosphonic acid]	100 to 1000	300 to 3000	> 3000
O=C1CCC(N2Cc3c(C#CCCCCCCn4ccc([C@@H]5CN(C(=O)[C@@H]6CC[C@@H]7C[C@H]8C[C@H]8C[C@H](NC(=O)c8cc9cc(C(F)(F)P(=O)(O)O)ccc9s8)C(=O)N76)C6(CC6)C5)cc4=O)cccc3C2=O)C(=O)N1 (stereo partly drawn) [Compound 5, ((2-(((3S,6S,7aS,8aR,9aR)-3-((6R)-6-(1-(8-(2-(2,6-dioxopiperidin-3-yl)-1-oxoisoindolin-4-yl)oct-7-yn-1-yl)-2-oxo-1,2-dihydropyridin-4-yl)-4-azaspiro[2.4]heptane-4-carbonyl)-5-oxodecahydro-1H-cyclopropa[d]pyrrolo[1,2-a]azocin-6-yl)carbamoyl)benzo[b]thiophen-5-yl)difluoromethyl)phosphonic acid]	100 to 1000	300 to 3000	100 to 1000
O=C1CCC(n2c(=O)[nH]c3cc(N4CCC(n5ccc([C@@H]6CN(C(=O)[C@@H]7CC[C@@H]8C[C@H]9C[C@H]9C[C@H](NC(=O)c9cc%10cc(C(F)(F)P(=O)(O)O)ccc%10s9)C(=O)N87)C7(CC7)C6)cc5=O)CC4)ccc32)C(=O)N1 (stereo partly drawn) [Compound 19, ((2-(((3S,6S,7aS,8aR,9aR)-3-((6R)-6-(1-(1-(1-(2,6-dioxopiperidin-3-yl)-2-oxo-2,3-dihydro-1H-benzo[d]imidazol-5-yl)piperidin-4-yl)-2-oxo-1,2-dihydropyridin-4-yl)-4-azaspiro[2.4]heptane-4-carbonyl)-5-oxodecahydro-1H-cyclopropa[d]pyrrolo[1,2-a]azocin-6-yl)carbamoyl)benzo[b]thiophen-5-yl)difluoromethyl)phosphonic acid]	100 to 1000	300 to 3000	> 3000
